The text below walks through data of BindingDB's records for doi:10.1016/S0960-894X(01)80247-X (1994).

For assay [1], the target named is T1, Endothelin-1 receptor (Rattus norvegicus, UniProt P26684).
T1 sequence (P26684 whole entry): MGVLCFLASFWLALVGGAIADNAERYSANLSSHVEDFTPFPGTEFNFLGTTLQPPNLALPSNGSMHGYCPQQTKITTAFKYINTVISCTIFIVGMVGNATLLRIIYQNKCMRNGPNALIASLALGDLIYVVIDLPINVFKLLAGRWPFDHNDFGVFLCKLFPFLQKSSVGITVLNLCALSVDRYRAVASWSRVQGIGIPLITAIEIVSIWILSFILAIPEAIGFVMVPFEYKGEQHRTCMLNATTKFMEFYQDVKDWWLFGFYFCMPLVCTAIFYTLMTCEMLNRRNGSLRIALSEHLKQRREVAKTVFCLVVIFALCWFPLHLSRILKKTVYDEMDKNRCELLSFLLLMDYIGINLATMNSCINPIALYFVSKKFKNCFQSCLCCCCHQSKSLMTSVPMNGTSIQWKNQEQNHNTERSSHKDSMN
Kind of assay: Concentration required to produce 50% inhibition of binding against ET A receptor obtained from rat thoracic aortic membrane.

The target in assay [2] is T2, Endothelin receptor type B (Rattus norvegicus, UniProt P21451).
T2 sequence (P21451 whole entry): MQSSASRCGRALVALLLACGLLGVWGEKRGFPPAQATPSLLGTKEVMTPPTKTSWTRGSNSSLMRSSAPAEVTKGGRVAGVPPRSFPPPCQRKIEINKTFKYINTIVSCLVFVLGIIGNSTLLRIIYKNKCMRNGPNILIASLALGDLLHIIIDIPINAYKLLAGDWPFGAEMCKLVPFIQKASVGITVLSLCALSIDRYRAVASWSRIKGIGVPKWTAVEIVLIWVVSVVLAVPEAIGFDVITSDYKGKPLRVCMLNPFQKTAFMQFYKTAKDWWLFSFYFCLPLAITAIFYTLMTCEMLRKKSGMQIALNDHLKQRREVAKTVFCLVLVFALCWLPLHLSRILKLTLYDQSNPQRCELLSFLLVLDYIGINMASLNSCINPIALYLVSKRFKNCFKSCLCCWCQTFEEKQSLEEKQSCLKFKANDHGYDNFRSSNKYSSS
Kind of assay: Concentration required to produce 50% inhibition of binding against ET B receptor obtained from rat brain membrane.

On to `CC[C@H](C)[C@H](NC(=O)[C@H](CC(=O)O)NC(=O)[C@H](CC(C)C)NC(=O)[C@H](Cc1cnc[nH]1)NC(=O)[C@H](CS)NC(=O)[C@H](Cc1ccccc1)NC(=O)[C@H](Cc1ccc(O)cc1)NC(=O)[C@@H](NC(=O)[C@H](CS)NC(=O)[C@H](CCC(=O)O)NC(=O)[C@H](CCCCN)NC(=O)[C@H](CC(=O)O)NC(=O)[C@H](CCSC)NC(=O)[C@H](CC(C)C)NC(=O)[C@H](CO)NC(=O)[C@H](CO)NC(=O)[C@H](CS)NC(=O)[C@H](CO)NC(=O)[C@@H](N)CS)C(C)C)C(=O)N[C@H](C)C(=O)N[C@@H](Cc1c[nH]c2ccccc12)C(=O)O` [Endothelin-1 analogue], for which the pIC50 in assay [1] worked out at 5.77; in assay [2], 7.96. The matching figures for `CC[C@@H](C)[C@H](NC(=O)[C@H](CC(=O)O)NC(=O)[C@H](CC(C)C)NC(=O)[C@H](Cc1cnc[nH]1)NC(=O)[C@H](CS)NC(=O)[C@H](Cc1ccccc1)NC(=O)[C@H](Cc1ccc(O)cc1)NC(=O)[C@@H](NC(=O)[C@H](CS)NC(=O)[C@H](CCC(=O)O)NC(=O)[C@H](CCCCN)NC(=O)[C@H](CC(=O)O)NC(=O)[C@H](CCSC)NC(=O)[C@H](CC(C)C)NC(=O)[C@H](CO)NC(=O)[C@H](CO)NC(=O)[C@H](CS)NC(=O)[C@H](CO)NC(=O)[C@@H](N)CS)C(C)C)C(=O)N[C@H](Cc1cnc[nH]1)C(=O)N[C@@H](Cc1c[nH]c2ccccc12)C(=O)O` [Endothelin-1 analogue]: 6.13 and 7.55. With `CC[C@H](C)[C@H](NC(=O)[C@H](CC(=O)O)NC(=O)[C@H](CC(C)C)NC(=O)[C@H](Cc1cnc[nH]1)NC(=O)[C@H](CS)NC(=O)[C@H](Cc1ccccc1)NC(=O)[C@H](Cc1ccc(O)cc1)NC(=O)[C@@H](NC(=O)[C@H](CS)NC(=O)[C@H](CCC(=O)O)NC(=O)[C@H](CCCCN)NC(=O)[C@H](CC(=O)O)NC(=O)[C@H](CCSC)NC(=O)[C@H](CC(C)C)NC(=O)[C@H](CO)NC(=O)[C@H](CO)NC(=O)[C@H](CS)NC(=O)[C@H](CO)NC(=O)[C@@H](N)CS)C(C)C)C(=O)N[C@H](C(=O)N[C@@H](Cc1c[nH]c2ccccc12)C(=O)O)[C@@H](C)CC` [Endothelin-1 analogue], the pIC50 in assay [1] amounted to 9.93.

In assay [1], `CC[C@@H](C)[C@@H](NC(=O)[C@@H](NC(=O)[C@H](CC(=O)O)NC(=O)[C@H](CC(C)C)NC(=O)[C@H](Cc1cnc[nH]1)NC(=O)[C@H](CS)NC(=O)[C@H](Cc1ccccc1)NC(=O)[C@H](Cc1ccc(O)cc1)NC(=O)[C@@H](NC(=O)[C@H](CS)NC(=O)[C@H](CCC(=O)O)NC(=O)[C@H](CCCCN)NC(=O)[C@H](CC(=O)O)NC(=O)[C@H](CCSC)NC(=O)[C@H](CC(C)C)NC(=O)[C@H](CO)NC(=O)[C@H](CO)NC(=O)[C@H](CS)NC(=O)[C@H](CO)NC(=O)[C@@H](N)CS)C(C)C)[C@@H](C)CC)C(=O)N[C@@H](Cc1c[nH]c2ccccc12)C(=O)O` [Endothelin-1 analogue] showed a pIC50 of 7.59. Regarding `CC[C@H](C)[C@H](NC(=O)[C@H](CC(=O)O)NC(=O)[C@H](CC(C)C)NC(=O)[C@H](Cc1cnc[nH]1)NC(=O)[C@H](CS)NC(=O)[C@H](Cc1ccccc1)NC(=O)[C@H](Cc1ccc(O)cc1)NC(=O)[C@@H](NC(=O)[C@H](CS)NC(=O)[C@H](CCC(=O)O)NC(=O)[C@H](CCCCN)NC(=O)[C@H](CC(=O)O)NC(=O)[C@H](CCSC)NC(=O)[C@H](CC(C)C)NC(=O)[C@H](CO)NC(=O)[C@H](CO)NC(=O)[C@H](CS)NC(=O)[C@H](CO)NC(=O)[C@@H](N)CS)C(C)C)C(=O)N[C@H](C(=O)N[C@@H](Cc1c[nH]c2ccccc12)C(=O)O)c1ccccc1` [Endothelin-1 analogue], the values for the pIC50 in assay [1] and in assay [2] were 8.89 and 9.76, respectively.

Take `CC[C@@H](C)[C@H](NC(=O)[C@H](CC(=O)O)NC(=O)[C@H](CC(C)C)NC(=O)[C@H](Cc1cnc[nH]1)NC(=O)[C@H](CS)NC(=O)[C@H](Cc1ccccc1)NC(=O)[C@H](Cc1ccc(O)cc1)NC(=O)[C@@H](NC(=O)[C@H](CS)NC(=O)[C@H](CCC(=O)O)NC(=O)[C@H](CCCCN)NC(=O)[C@H](CC(=O)O)NC(=O)[C@H](CCSC)NC(=O)[C@H](CC(C)C)NC(=O)[C@H](CO)NC(=O)[C@H](CO)NC(=O)[C@H](CS)NC(=O)[C@H](CO)NC(=O)[C@@H](N)CS)C(C)C)C(=O)N[C@@H](C(=O)N[C@@H](Cc1c[nH]c2ccccc12)C(=O)O)C(C)C` [Endothelin-1 analogue]: the pIC50 in assay [1] came to 9; in assay [2], 9.05.

Turning to `CC[C@@H](C)[C@H](NC(=O)[C@H](CC(=O)O)NC(=O)[C@H](CC(C)C)NC(=O)[C@H](Cc1cnc[nH]1)NC(=O)[C@H](CS)NC(=O)[C@H](Cc1ccccc1)NC(=O)[C@H](Cc1ccc(O)cc1)NC(=O)[C@@H](NC(=O)[C@H](CS)NC(=O)[C@H](CCC(=O)O)NC(=O)[C@H](CCCCN)NC(=O)[C@H](CC(=O)O)NC(=O)[C@H](CCSC)NC(=O)[C@H](CC(C)C)NC(=O)[C@H](CO)NC(=O)[C@H](CO)NC(=O)[C@H](CS)NC(=O)[C@H](CO)NC(=O)[C@@H](N)CS)C(C)C)C(=O)N[C@H](CCC(N)=O)C(=O)N[C@@H](Cc1c[nH]c2ccccc12)C(=O)O` [Endothelin-1 analogue], the pIC50 in assay [1] was determined as 5.27; in assay [2], 5.59.

Take `CCC[C@@H](NC(=O)[C@@H](NC(=O)[C@H](CC(=O)O)NC(=O)[C@H](CC(C)C)NC(=O)[C@H](Cc1cnc[nH]1)NC(=O)[C@H](CS)NC(=O)[C@H](Cc1ccccc1)NC(=O)[C@H](Cc1ccc(O)cc1)NC(=O)[C@@H](NC(=O)[C@H](CS)NC(=O)[C@H](CCC(=O)O)NC(=O)[C@H](CCCCN)NC(=O)[C@H](CC(=O)O)NC(=O)[C@H](CCSC)NC(=O)[C@H](CC(C)C)NC(=O)[C@H](CO)NC(=O)[C@H](CO)NC(=O)[C@H](CS)NC(=O)[C@H](CO)NC(=O)[C@@H](N)CS)C(C)C)[C@H](C)CC)C(=O)N[C@@H](Cc1c[nH]c2ccccc12)C(=O)O` [Endothelin-1 analogue]: the values for the pIC50 in assay [1] and in assay [2] were 7.6 and 10, respectively.

On to `CC[C@H](C)[C@H](NC(=O)[C@H](CC(=O)O)NC(=O)[C@H](CC(C)C)NC(=O)[C@H](Cc1cnc[nH]1)NC(=O)[C@H](CS)NC(=O)[C@H](Cc1ccccc1)NC(=O)[C@H](Cc1ccc(O)cc1)NC(=O)[C@@H](NC(=O)[C@H](CS)NC(=O)[C@H](CCC(=O)O)NC(=O)[C@H](CCCCN)NC(=O)[C@H](CC(=O)O)NC(=O)[C@H](CCSC)NC(=O)[C@H](CC(C)C)NC(=O)[C@H](CO)NC(=O)[C@H](CO)NC(=O)[C@H](CS)NC(=O)[C@H](CO)NC(=O)[C@@H](N)CS)C(C)C)C(=O)N[C@H](C(=O)N[C@@H](Cc1c[nH]c2ccccc12)C(=O)O)C1CCCCC1` [Endothelin-1 analogue], for which the figures for the pIC50 in assay [1] and in assay [2] were 9.88 and 10, respectively. With `CC[C@@H](C)[C@H](NC(=O)[C@H](CC(=O)O)NC(=O)[C@H](CC(C)C)NC(=O)[C@H](Cc1cnc[nH]1)NC(=O)[C@H](CS)NC(=O)[C@H](Cc1ccccc1)NC(=O)[C@H](Cc1ccc(O)cc1)NC(=O)[C@@H](NC(=O)[C@H](CS)NC(=O)[C@H](CCC(=O)O)NC(=O)[C@H](CCCCN)NC(=O)[C@H](CC(=O)O)NC(=O)[C@H](CCSC)NC(=O)[C@H](CC(C)C)NC(=O)[C@H](CO)NC(=O)[C@H](CO)NC(=O)[C@H](CS)NC(=O)[C@H](CO)NC(=O)[C@@H](N)CS)C(C)C)C(=O)N[C@H](Cc1ccccc1)C(=O)N[C@@H](Cc1c[nH]c2ccccc12)C(=O)O` [Endothelin-1 analogue], the pIC50 was 6.07 in assay [1] and 8.6 in assay [2]. The matching figures for `CCC(CC)C[C@@H](NC(=O)[C@@H](NC(=O)[C@H](CC(=O)O)NC(=O)[C@H](CC(C)C)NC(=O)[C@H](Cc1cnc[nH]1)NC(=O)[C@H](CS)NC(=O)[C@H](Cc1ccccc1)NC(=O)[C@H](Cc1ccc(O)cc1)NC(=O)[C@@H](NC(=O)[C@H](CS)NC(=O)[C@H](CCC(=O)O)NC(=O)[C@H](CCCCN)NC(=O)[C@H](CC(=O)O)NC(=O)[C@H](CCSC)NC(=O)[C@H](CC(C)C)NC(=O)[C@H](CO)NC(=O)[C@H](CO)NC(=O)[C@H](CS)NC(=O)[C@H](CO)NC(=O)[C@@H](N)CS)C(C)C)[C@H](C)CC)C(=O)N[C@@H](Cc1c[nH]c2ccccc12)C(=O)O` [Endothelin-1 analogue]: 8.06 and 9.78. Take `CC[C@H](C)[C@H](NC(=O)[C@H](CC(=O)O)NC(=O)[C@H](CC(C)C)NC(=O)[C@H](Cc1cnc[nH]1)NC(=O)[C@H](CS)NC(=O)[C@H](Cc1ccccc1)NC(=O)[C@H](Cc1ccc(O)cc1)NC(=O)[C@@H](NC(=O)[C@H](CS)NC(=O)[C@H](CCC(=O)O)NC(=O)[C@H](CCCCN)NC(=O)[C@H](CC(=O)O)NC(=O)[C@H](CCSC)NC(=O)[C@H](CC(C)C)NC(=O)[C@H](CO)NC(=O)[C@H](CO)NC(=O)[C@H](CS)NC(=O)[C@H](CO)NC(=O)[C@@H](N)CS)C(C)C)C(=O)N[C@@H](Cc1c[nH]c2ccccc12)C(=O)N[C@@H](Cc1c[nH]c2ccccc12)C(=O)O` [Endothelin-1 analogue]: the figures for the pIC50 in assay [1] and in assay [2] were 6.71 and 9.77, respectively.

By pIC50 is commonly meant −log10 of the IC50, conventionally taken in molar units. Read a high pIC50 as a small IC50.
